Test results: patent EP0531119B1, “N,N',N'-trisubstituted -5-bis-aminomethylene-1,3-dioxane-4,6-dione inhibitors of acyl-CoA: cholesterol-acyl transferase” (AMERICAN HOME PRODUCTS CORPORATION, priority 1991, dated 1993)

Experiments:
[1] = system: acyl-coenzyme A: cholesterol acyltransferase; assay: Inhibition of intracellular cholesterol esterification (ACAT), test procedure of Ross et al.; format: cell-based; conditions: for % Inhib, (Concentration - µM): 25 µM; for IC50: read-out: IC₅₀
Source text: The ability of the compounds of this invention to inhibit acyl-coenzyme A: cholesterol acyltransferase was established by initially showing that they inhibited intracellular cholesterol esterification by subjecting them to the standard experimental test procedure of Ross et al., J. Biol. Chem. 259 815 (1984). The results of these studies are presented in: Table I

[2] = system: ¹⁴C-Cholesterol Absorption; assay: In vivo 14C-cholesterol absorption in normal rats; conditions: oral gavage, blood samples six hours later
Procedure: Representative compounds were further tested in vivo to establish the percent inhibition of cholesterol absorption. In this study, normal rats were dosed (oral gavage) with ¹⁴C-cholesterol plus the test compound. Blood samples taken exactly six hours later were analyzed and the percent inhibition of cholesterol absorption was calculated as shown in: Table II

plasma cholesterol = assay: Cholesterol-cholic acid fed rat, decrease of plasma cholesterol; format: in vivo; conditions: 10 mg/kg, oral gavage just prior to and just following feeding, four days
Procedure: In addition, the product of Example 1 was studied in vivo in the cholesterol-cholic acid fed rat to determine the percent decrease of cholesterol in their plasma This study involves rats which are, prior to testing, trained for one week to eat over a four hour time period each day. Upon initiation of the experiment, the rats diet is supplemented with 1.0 percent cholesterol and 0.25 percent cholic acid. The rats are dosed with the test compound by oral gavage just prior to and just following the four hour feeding period. This is repeated for four days. On the fifth day, the rats are sacrificed and the total plasma cholesterol content is determined. The percent decrease in elevated plasma cholesterol levels is calculated in comparison with […] controls.

Compound | % Inhib, (Concentration - µM) [1] | IC50 [1] | % Inhibition of Absorption ([2]; dose 3 mg/kg) | % Inhibition of Absorption ([2]; dose 10 mg/kg) | decrease in plasma cholesterol (plasma cholesterol)
CCCCCCN(Cc1ccncc1)C(Nc1cc(C(C)(C)C)c(O)c(C(C)(C)C)c1)=C1C(=O)OC(C)(C)OC1=O [Example 10, 5-[(3,5-Di-tert-butyl-4-hydroxy-phenylamino)-(hexyl-(pyridin-4-ylmethyl)-amino)-methylene]-2,2-dimethyl-1,3-dioxane-4,6-dione] | 94 (25) % | 5.82 µM | – | – | –
CCCCCCCN(Cc1ccc(CC(C)(C)C)s1)C(Nc1ccc(OC)cc1OC)=C1C(=O)OC(C)(C)OC1=O [Example 16, 5-[[(2,4-Dimethoxyphenyl)amino][[[5-(2,2-dimethylpropyl)-2-thienyl]methyl]heptylamino]-methylene]-2,2-dimethyl-1,3-dioxane-4,6-] | 94 (25) % | 2.96 µM | – | – | –
CCCCCCN(Cc1cc2ccccc2s1)C(Nc1ccc(OC)cc1OC)=C1C(=O)OC(C)(C)OC1=O [Example 22, 5-[[(Benzo[b]thiophen-2-ylmethyl)-hexyl-amino]-(2,4-dimethoxyphenylamino)-methylene]-2,2-dimethyl-[1,3]dioxane-4,6-] | 94 (25) % | 0.62 µM | – | – | –
CCCCCCN(Cc1ccc2ccccc2n1)C(Nc1ccc(OC)cc1OC)=C1C(=O)OC(C)(C)OC1=O [Example 4, 5-[[(2,4-Dimethoxyphenyl)amino][hexyl(2-quinolinylmethyl)amino]methylene]-2,2-dimethyl-1,3-dioxane-4,6-dione] | 72 (25) % | 5.16 µM | – | – | –
CCCCCC(C)N(Cc1ccnc2ccccc12)C(Nc1cc(C(C)(C)C)c(O)c(C(C)(C)C)c1)=C1C(=O)OC(C)(C)OC1=O (stereo not drawn) [Example 8, 5-[[[3,5-Bis(1,1-dimethylethyl)-4-hydroxyphenyl]amino][(1-methylhexyl)(4-quinolinylmethyl)amino]methylene]-2,2-dimethyl-1,3-dioxane-4,6-dione] | 97 (25) % | 1.65 µM | – | – | –
CCCCCCN(Cc1ccc2ccccc2n1)C(Nc1cc(C(C)(C)C)c(O)c(C(C)(C)C)c1)=C1C(=O)OC(C)(C)OC1=O [Example 3, 5-[[[3,5-Bis(1,1-dimethylethyl)-4-hydroxyphenyl]amino][hexyl(2-quinolinylmethyl)amino]methylene]-2,2-dimethyl-1,3-dioxane-4,6-dione] | 55 (25) % | 2.33 µM | 11% | – | –
CCCCCCN(Cc1cccnc1)C(Nc1ccc(OC)cc1OC)=C1C(=O)OC(C)(C)OC1=O [Example 14, 5-[(2,4-Dimethoxy-phenylamino)-[hexyl-(pyridin-3-ylmethyl)-amino]-methylene]-2,2-dimethyl-[1,3]-dioxane-4,6-dione] | 18 (25) % | – | – | – | –
CCCCCCN(Cc1ccncc1)C(Nc1ccc(OC)cc1OC)=C1C(=O)OC(C)(C)OC1=O [Example 11] | 24 (25) % | – | – | – | –
CCCCCCN(Cc1cnc2ccccc2c1)C(Nc1cc(C(C)(C)C)c(O)c(C(C)(C)C)c1)=C1C(=O)OC(C)(C)OC1=O [Example 9, 5-[[[3,5-Bis(1,1-dimethylethyl)-4-hydroxyphenyl]amino][hexyl(3-quinolinylmethyl)amino]methylene]-2,2-dimethyl-1,3-dioxane-4,6-dione] | 98 (25) % | 1.35 µM | – | – | –
CCCCCCN(Cc1ccccn1)C(Nc1ccc(OC)cc1OC)=C1C(=O)OC(C)(C)OC1=O [Example 13, 5-[(2,4-Dimethoxyphenylamino)-[hexyl-(pyridin-2-ylmethyl)-amino]-methylene]-2,2-dimethyl-[1,3]-dioxane-4,6-dione] | 26 (25) % | – | – | – | –
CCCCCCN(Cc1ccnc2ccccc12)C(Nc1ccc(OC)cc1OC)=C1C(=O)OC(C)(C)OC1=O [Example 2, 5-[[(2,4-Dimethoxyphenyl)amino][hexyl(4-quinolinylmethyl)amino]methylene]-2,2-dimethyl-1,3-dioxane-4,6-dione] | – | – | 2% | – | –
CCCCCC(C)N(Cc1ccc2ccccc2n1)C(Nc1cc(C(C)(C)C)c(O)c(C(C)(C)C)c1)=C1C(=O)OC(C)(C)OC1=O (stereo not drawn) [Example 6] | 95 (25) % | 1.55 µM | – | – | –
CCCCCCN(Cc1csc2ccccc12)C(Nc1cc(C(C)(C)C)c(O)c(C(C)(C)C)c1)=C1C(=O)OC(C)(C)OC1=O [Example 21, 5-[(Benzo[b]thiophen-3-ylmethyl-hexyl-amino)-(3,5-di-tert-butyl-4-hydroxy-phenylamino)-methylene]-2,2-dimethyl-[1,3]dioxane-4,6-dione] | 98 (25) % | 0.38 µM | – | – | –
CCCCCC(C)N(Cc1ccc(CC(C)(C)C)s1)C(Nc1ccc(OC)cc1OC)=C1C(=O)OC(C)(C)OC1=O (stereo not drawn) [Example 18, 5-[[(2,4-Dimethoxyphenyl)amino][[[5-(2,2-dimethylpropyl)-2-thienyl]methyl](1-methylhexyl)-amino]methylene]-2,2-dimethyl-1,3-dioxane-4,6-dione] | 97 (25) % | – | – | – | –
CCCCCC(C)N(Cc1ccnc2ccccc12)C(Nc1ccc(OC)cc1OC)=C1C(=O)OC(C)(C)OC1=O (stereo not drawn) [Example 7, 5-[[(2,4-Dimethoxyphenyl)amino][(1-methylhexyl)(4-quinolinylmethyl)amino]methylene]-2,2-dimethyl-1,3-dioxane-4,6-dione] | 51 (25) % | 9.41 µM | – | – | –
CCCCCCN(Cc1ccnc2ccccc12)C(Nc1cc(C(C)(C)C)c(O)c(C(C)(C)C)c1)=C1C(=O)OC(C)(C)OC1=O [Example 1, 5-[[[3,5-Bis(1,1-dimethylethyl)-4-hydroxyphenyl]amino][hexyl(4-quinolinylmethyl)amino]methylene]-2,2-dimethyl-1,3-dioxane-4,6-dione] | 69 (25) % | 2.96 µM | – | 72% | 50%
CCCCCC(C)N(Cc1ccc2ccccc2n1)C(Nc1ccc(OC)cc1OC)=C1C(=O)OC(C)(C)OC1=O (stereo not drawn) [Example 5] | 90 (25) % | 2.42 µM | – | – | –
CCCCCCCN(Cc1ccc(CC(C)(C)C)s1)C(Nc1cc(C(C)(C)C)c(O)c(C(C)(C)C)c1)=C1C(=O)OC(C)(C)OC1=O [Example 17, 5-[[[3,5-Bis(1,1-dimethylethyl)-4-hydroxyphenyl]amino][[[5-(2,2-dimethylpropyl)-2-thienyl]methyl]heptylamino]methylene]-2,2-dimethyl-1,3-dioxane-4,6-dione] | – | 0.7 µM | – | – | –
CCCCCC(C)N(Cc1cc2ccccc2s1)C(Nc1ccc(OC)cc1OC)=C1C(=O)OC(C)(C)OC1=O (stereo not drawn) [Example 23, 5-[[Benzo[b]thiophen-2-ylmethyl-(1-methyl-hexyl)-amino]-(2,4-dimethoxy-phenylamino)-methylene]-2,2-dimethyl-[1,3]dioxane-4,6-dione] | 97 (25) % | 0.35 µM | – | – | –
COc1ccc(NC(NC(c2ccc(CC(C)(C)C)s2)C2CCCCC2)=C2C(=O)OC(C)(C)OC2=O)c(OC)c1 (stereo not drawn) [Example 20, 5-[[[Cyclohexyl-[5-(2,2-dimethylpropyl)-2-thienyl]methyl]amino]-[(2,4-dimethoxyphenyl)amino]-methylene]-2,2-dimethyl-1,3-dioxane-4,6-dione] | 95 (25) % | – | – | – | –
CCCCCCC(C)N(Cc1ccc(CC(C)(C)C)s1)C(Nc1cc(C(C)(C)C)c(O)c(C(C)(C)C)c1)=C1C(=O)OC(C)(C)OC1=O (stereo not drawn) [Example 19, 5-[[[3,5-Bis(1,1-dimethylethyl)-4-hydroxyphenyl]amino][[[5-(2,2-dimethylpropyl)-2-thienyl]methyl](1-methylheptyl)amino]methylene]-2,2-dimethyl-1,3-dioxane-4,6-dione] | – | 0.64 µM | – | – | –
CCCCCC(C)N(Cc1cc2ccccc2s1)C(Nc1cc(C(C)(C)C)c(O)c(C(C)(C)C)c1)=C1C(=O)OC(C)(C)OC1=O (stereo not drawn) [Example 24, 5-[[Benzo[b]thiophen-2-ylmethyl-(1-methyl-hexyl)-amino]-(3,5-di-tert-butyl-4-hydroxy-phenylamino)methylene]-2,2-dimethyl-[1,3]dioxane-4,6-dione] | 98 (25) % | 0.31 µM | – | – | –
CCCCCCN(Cc1ccccn1)C(Nc1cc(C(C)(C)C)c(O)c(C(C)(C)C)c1)=C1C(=O)OC(C)(C)OC1=O [Example 12, 5-[(3,5-Di-tert-butyl-4-hydroxy-phenylamino)-(hexyl-(pyridin-2-ylmethyl)-amino]-methylene]-2,2-dimethyl-[1,3]-dioxane-4,6-dione] | 92 (25) % | 4.11 µM | – | 65% | –
CCCCCCN(Cc1cccnc1)C(Nc1cc(C(C)(C)C)c(O)c(C(C)(C)C)c1)=C1C(=O)OC(C)(C)OC1=O [Example 15, 5-[(3,5-Di-tert-butyl-4-hydroxy-phenylamino)-[hexyl-(pyridin-3-ylmethyl)-amino]-methylene]-2,2-dimethyl-1,3-dioxane-4,6-dione] | 97 (25) % | 3.9 µM | 48% | – | –
